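96-well plates; 48 h exposure; 5 concentrations. Endpoints by linear interpolation between flanking doses. Not reached: highest tested concentration assigned. At the GI50, growth is halved. TGI: concentration producing complete growth inhibition.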
Experiments:
Assay in all cases: NCI anticancer screen, dose series, 48 h
786-0 renal = test system: 786-0 renal
A498 renal = test system: A498 renal
A549 NSCLC = test system: A549 NSCLC
ACHN renal = test system: ACHN renal
BT-549 breast = test system: BT-549 breast
CAKI-1 renal = test system: CAKI-1 renal
COLO 205 colon = test system: COLO 205 colon
DU-145 prostate = test system: DU-145 prostate
EKVX NSCLC = test system: EKVX NSCLC
HCC-2998 colon = test system: HCC-2998 colon
HCT-116 colon = test system: HCT-116 colon
HCT-15 colon = test system: HCT-15 colon
HL-60(TB) leukemia = test system: HL-60(TB) leukemia
HOP-62 NSCLC = test system: HOP-62 NSCLC
HOP-92 NSCLC = test system: HOP-92 NSCLC
HS 578T breast = test system: HS 578T breast
HT29 colon = test system: HT29 colon
KM12 colon = test system: KM12 colon
LOX IMVI melanoma = test system: LOX IMVI melanoma
M14 melanoma = test system: M14 melanoma
MALME-3M melanoma = test system: MALME-3M melanoma
MCF7 breast = test system: MCF7 breast
MDA-MB-231 breast = test system: MDA-MB-231 breast
MDA-MB-435 = test system: MDA-MB-435
MOLT-4 leukemia = test system: MOLT-4 leukemia
NCI-H226 lung = test system: NCI-H226 lung
NCI-H23 lung = test system: NCI-H23 lung
NCI-H460 lung = test system: NCI-H460 lung
NCI-H522 lung = test system: NCI-H522 lung
NCI/ADR-RES ovarian = test system: NCI/ADR-RES ovarian
OVCAR-3 ovarian = test system: OVCAR-3 ovarian
OVCAR-4 ovarian = test system: OVCAR-4 ovarian
OVCAR-5 ovarian = test system: OVCAR-5 ovarian
OVCAR-8 ovarian = test system: OVCAR-8 ovarian
PC-3 prostate = test system: PC-3 prostate
RPMI-8226 leukemia = test system: RPMI-8226 leukemia
RXF 393 renal = test system: RXF 393 renal
SF-268 CNS = test system: SF-268 CNS
SF-295 CNS = test system: SF-295 CNS
SF-539 CNS = test system: SF-539 CNS
SK-MEL-2 melanoma = test system: SK-MEL-2 melanoma
SK-MEL-28 melanoma = test system: SK-MEL-28 melanoma
SK-MEL-5 melanoma = test system: SK-MEL-5 melanoma
SK-OV-3 ovarian = test system: SK-OV-3 ovarian
SN12C renal = test system: SN12C renal
SNB-19 CNS = test system: SNB-19 CNS
SNB-75 CNS = test system: SNB-75 CNS
SR leukemia = test system: SR leukemia
SW-620 colon = test system: SW-620 colon
T-47D breast = test system: T-47D breast
TK-10 renal = test system: TK-10 renal
U251 CNS = test system: U251 CNS
UACC-257 melanoma = test system: UACC-257 melanoma
UACC-62 melanoma = test system: UACC-62 melanoma
UO-31 renal = test system: UO-31 renal
CCRF-CEM leukemia = test system: CCRF-CEM leukemia
IGROV1 ovarian = test system: IGROV1 ovarian
K-562 leukemia = test system: K-562 leukemia

## O=S(=O)(Nc1ccc2ccccc2c1)N1CCCCC1
786-0 renal
  GI50: 13.6 µM
  TGI: 30 µM
A498 renal
  GI50: 3.33 µM
  TGI: 15.7 µM
A549 NSCLC
  GI50: 11.9 µM
  TGI: 38.1 µM
ACHN renal
  GI50: 18.1 µM
  TGI: 60.9 µM
BT-549 breast
  GI50: 13.8 µM
  TGI: 28.4 µM
CAKI-1 renal
  GI50: 1.81 µM
  TGI: 7.97 µM
COLO 205 colon
  GI50: 9.36 µM
  TGI: 25.3 µM
DU-145 prostate
  GI50: 12.1 µM
  TGI: 30.3 µM
EKVX NSCLC
  GI50: 7.99 µM
  TGI: 41 µM
HCC-2998 colon
  GI50: 8.35 µM
  TGI: 22.2 µM
HCT-116 colon
  GI50: 9.94 µM
  TGI: 23.4 µM
HCT-15 colon
  GI50: 8 µM
  TGI: 35.2 µM
HL-60(TB) leukemia
  GI50: 9.31 µM
  TGI: 43.2 µM
HOP-62 NSCLC
  GI50: 3.93 µM
  TGI: 18.7 µM
HOP-92 NSCLC
  GI50: 5.42 µM
  TGI: 20.4 µM
HS 578T breast
  GI50: 11.9 µM
  TGI: 33.6 µM
HT29 colon
  GI50: 4.87 µM
  TGI: 18.9 µM
KM12 colon
  GI50: 4.21 µM
  TGI: 17.2 µM
LOX IMVI melanoma
  GI50: 9.97 µM
  TGI: 24.6 µM
M14 melanoma
  GI50: 8.94 µM
  TGI: 25.5 µM
MALME-3M melanoma
  GI50: 14.5 µM
  TGI: 34 µM
MCF7 breast
  GI50: 9.55 µM
  TGI: 88.9 µM
MDA-MB-231 breast
  GI50: 10.1 µM
  TGI: 25 µM
MDA-MB-435
  GI50: 1.91 µM
  TGI: 10.8 µM
MOLT-4 leukemia
  GI50: 7.21 µM
  TGI: 58 µM
NCI-H226 lung
  GI50: 14.8 µM
  TGI: 33.2 µM
NCI-H23 lung
  GI50: 12.2 µM
  TGI: 34 µM
NCI-H460 lung
  GI50: 10.1 µM
  TGI: 23.3 µM
NCI-H522 lung
  GI50: 2.49 µM
  TGI: 8 µM
NCI/ADR-RES ovarian
  GI50: 4.09 µM
  TGI: 22.2 µM
OVCAR-3 ovarian
  GI50: 4.71 µM
  TGI: 16.7 µM
OVCAR-4 ovarian
  GI50: 15.6 µM
  TGI: 50.1 µM
OVCAR-5 ovarian
  GI50: 19.5 µM
  TGI: 43.7 µM
OVCAR-8 ovarian
  GI50: 19.6 µM
  TGI: 57 µM
PC-3 prostate
  GI50: 13.1 µM
  TGI: 41.5 µM
RPMI-8226 leukemia
  GI50: 17.8 µM
  TGI: 75.5 µM
RXF 393 renal
  GI50: 5.58 µM
  TGI: 19.7 µM
SF-268 CNS
  GI50: 11.7 µM
  TGI: 28.8 µM
SF-295 CNS
  GI50: 2.4 µM
  TGI: 15.2 µM
SF-539 CNS
  GI50: 10.5 µM
  TGI: 24.9 µM
SK-MEL-2 melanoma
  GI50: 9.85 µM
  TGI: 23.6 µM
SK-MEL-28 melanoma
  GI50: 12 µM
  TGI: 28 µM
SK-MEL-5 melanoma
  GI50: 8.33 µM
  TGI: 21 µM
SK-OV-3 ovarian
  GI50: 8.93 µM
  TGI: 37.4 µM
SN12C renal
  GI50: 13.2 µM
  TGI: 29.1 µM
SNB-19 CNS
  GI50: 18.4 µM
  TGI: > 100 µM
SNB-75 CNS
  GI50: 2.38 µM
  TGI: 20.7 µM
SR leukemia
  GI50: 4.15 µM
  TGI: 44.6 µM
SW-620 colon
  GI50: 5.7 µM
  TGI: 20.7 µM
T-47D breast
  GI50: 11 µM
  TGI: 45.8 µM
TK-10 renal
  GI50: 12.7 µM
  TGI: 32.1 µM
U251 CNS
  GI50: 12 µM
  TGI: 26.7 µM
UACC-257 melanoma
  GI50: 10.1 µM
  TGI: 24 µM
UACC-62 melanoma
  GI50: 8.7 µM
  TGI: 22.2 µM
UO-31 renal
  GI50: 6.87 µM
  TGI: 22.9 µM

## COc1ccc2c(c1OC)OC[C@@H](C1=CC(=O)C=C(O)C1=O)C2
786-0 renal
  TGI: 16.9 µM
A498 renal
  TGI: 32.1 µM
A549 NSCLC
  TGI: 35.8 µM
ACHN renal
  TGI: 11.3 µM
BT-549 breast
  TGI: 26 µM
CCRF-CEM leukemia
  TGI: 3.81 µM
COLO 205 colon
  TGI: 43.3 µM
DU-145 prostate
  TGI: 29.3 µM
EKVX NSCLC
  TGI: 18.3 µM
HCC-2998 colon
  TGI: 32.3 µM
HCT-116 colon
  TGI: 17.4 µM
HCT-15 colon
  TGI: 31 µM
HL-60(TB) leukemia
  TGI: 1.88 µM
HOP-62 NSCLC
  TGI: 64.5 µM
HOP-92 NSCLC
  TGI: 4.12 µM
HS 578T breast
  TGI: 60.1 µM
HT29 colon
  TGI: 55.8 µM
IGROV1 ovarian
  TGI: 25.2 µM
K-562 leukemia
  TGI: 11.8 µM
KM12 colon
  TGI: 27.5 µM
LOX IMVI melanoma
  TGI: 13.1 µM
M14 melanoma
  TGI: 26.8 µM
MALME-3M melanoma
  TGI: 24.7 µM
MCF7 breast
  TGI: 27 µM
MDA-MB-231 breast
  TGI: 10.4 µM
MDA-MB-435
  TGI: 23.9 µM
MOLT-4 leukemia
  TGI: 5.31 µM
NCI-H226 lung
  TGI: 46.7 µM
NCI-H23 lung
  TGI: 33.8 µM
NCI-H460 lung
  TGI: 27.4 µM
NCI-H522 lung
  TGI: 8.9 µM
NCI/ADR-RES ovarian
  TGI: 79.1 µM
OVCAR-3 ovarian
  TGI: 26.3 µM
OVCAR-4 ovarian
  TGI: 24.1 µM
OVCAR-5 ovarian
  TGI: 40 µM
OVCAR-8 ovarian
  TGI: 69.3 µM
PC-3 prostate
  TGI: 26.8 µM
RPMI-8226 leukemia
  TGI: 5.18 µM
RXF 393 renal
  TGI: 19.1 µM
SF-268 CNS
  TGI: 38.1 µM
SF-295 CNS
  TGI: 30.7 µM
SF-539 CNS
  TGI: 26.8 µM
SK-MEL-2 melanoma
  TGI: 29 µM
SK-MEL-28 melanoma
  TGI: > 58.5 µM
SK-MEL-5 melanoma
  TGI: 27 µM
SK-OV-3 ovarian
  TGI: 30.3 µM
SN12C renal
  TGI: 37 µM
SNB-19 CNS
  TGI: 34.7 µM
SNB-75 CNS
  TGI: 23.6 µM
SR leukemia
  TGI: 19.2 µM
SW-620 colon
  TGI: 26.2 µM
T-47D breast
  TGI: 20.3 µM
TK-10 renal
  TGI: 27.3 µM
U251 CNS
  TGI: 24.5 µM
UACC-257 melanoma
  TGI: 26.1 µM
UACC-62 melanoma
  TGI: 25.1 µM
UO-31 renal
  TGI: 25.9 µM
